Data as given in US12545673B2, “Imidazopyridine derivative and pharmaceutical composition comprising same as active ingredient” (TSD LIFE SCIENCES CO., LTD., priority 2019, dated 2026).
Like-named read-outs stand apart in the source and are kept apart here.

How the values were obtained:
[1] = test system: acute lymphoblastic leukemia cell line Jurkat; assay: Cancer cell proliferation inhibitory activity evaluation 2 (CCK-8), Jurkat; format: cell-based; details: Homo sapiens
[2] = target: MLK3 (Homo sapiens (Human), UniProt Q16584); assay: Evaluation of inhibitory activity of enzyme units, MLK3 ([γ-33P]-ATP filter assay); details: read-out: IC50(nM) MLK3
Chain of MLK3 (Q16584 whole entry, looked up): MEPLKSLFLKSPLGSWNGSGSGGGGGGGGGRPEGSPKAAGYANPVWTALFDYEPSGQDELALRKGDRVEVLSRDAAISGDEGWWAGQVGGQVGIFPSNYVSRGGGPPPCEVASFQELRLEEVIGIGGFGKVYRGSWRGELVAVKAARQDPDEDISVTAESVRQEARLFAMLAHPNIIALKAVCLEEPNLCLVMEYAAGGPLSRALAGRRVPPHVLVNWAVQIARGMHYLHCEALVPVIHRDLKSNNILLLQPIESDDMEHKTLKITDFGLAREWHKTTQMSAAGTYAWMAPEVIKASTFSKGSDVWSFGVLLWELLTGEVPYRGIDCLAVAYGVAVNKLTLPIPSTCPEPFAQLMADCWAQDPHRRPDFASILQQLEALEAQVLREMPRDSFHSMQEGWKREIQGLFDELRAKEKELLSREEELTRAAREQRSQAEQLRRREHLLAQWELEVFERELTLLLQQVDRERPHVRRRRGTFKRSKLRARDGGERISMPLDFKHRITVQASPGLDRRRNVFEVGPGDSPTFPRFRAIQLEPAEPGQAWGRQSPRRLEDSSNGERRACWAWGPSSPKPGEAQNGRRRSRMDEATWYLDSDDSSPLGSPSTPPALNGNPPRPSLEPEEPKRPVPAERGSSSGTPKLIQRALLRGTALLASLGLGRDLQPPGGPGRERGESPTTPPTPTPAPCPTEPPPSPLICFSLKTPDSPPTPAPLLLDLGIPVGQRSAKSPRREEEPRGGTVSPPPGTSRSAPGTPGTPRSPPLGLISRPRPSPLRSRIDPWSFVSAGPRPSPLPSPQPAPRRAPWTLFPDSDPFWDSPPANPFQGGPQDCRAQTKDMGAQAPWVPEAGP

[3] = test system: acute myeloid leukemia cell line U937; assay: Cancer cell proliferation inhibitory activity evaluation 2 (CCK-8), U937; format: cell-based; details: Homo sapiens, read-out: Cancer cell proliferation inhibitory activity U937
[4] = test system: α-SMA; assay: Fibrosis inhibition evaluation 2, palmitic acid-induced HepG2, real-time PCR, α-SMA; details: palmitic acid-induced HepG2 (Table 8)
[5] = test system: acute myeloid leukemia cell line U937; assay: Cancer cell proliferation inhibitory activity evaluation 1 (CCK-8), U937; format: cell-based; details: Homo sapiens, U-937, 72 h, read-out: Cancer cell proliferation inhibitory activity U937
Procedure: (§1) In order to identify whether the compound has anticancer activity, the human breast cancer cell line MDA-MB-231, the colorectal cancer cell line HT-29, the acute myeloid leukemia cell line U937, and the chronic myeloid leukemia cell line K562 were used. The cell line was cultured using RPMI-1640 medium containing 10% fetal bovine serum. Welgene products were used as the medium, and hyclone products were used for fetal bovine serum, and 1% of antibiotics for cell culture from Gibco were used as the culture medium.

[6] = test system: Fibronectin-1; assay: Fibrosis inhibition evaluation 2, palmitic acid-induced HepG2, real-time PCR, Fibronectin-1
[7] = test system: TGF-β1; assay: Fibrosis inhibition evaluation 2, palmitic acid-induced HepG2, real-time PCR, TGF-β1
[8] = test system: chronic myeloid leukemia cell line K562; assay: Cancer cell proliferation inhibitory activity evaluation 1 (CCK-8), K562; format: cell-based; details: Homo sapiens, K562, 72 h, read-out: Cancer cell proliferation inhibitory activity K562
Procedure: as §1

[9] = target: LRRK2 wild-type (Homo sapiens (Human), UniProt Q5S007); assay: Evaluation of inhibitory activity against LRRK2 (affinity bead competition binding), wild-type; details: read-out: Residual active values (%) LRRK2; for remaining binding at 0.1 µM: 100 nM; for remaining binding at 0.5 µM: 500 nM
Chain of LRRK2 wild-type (Q5S007 whole entry, looked up): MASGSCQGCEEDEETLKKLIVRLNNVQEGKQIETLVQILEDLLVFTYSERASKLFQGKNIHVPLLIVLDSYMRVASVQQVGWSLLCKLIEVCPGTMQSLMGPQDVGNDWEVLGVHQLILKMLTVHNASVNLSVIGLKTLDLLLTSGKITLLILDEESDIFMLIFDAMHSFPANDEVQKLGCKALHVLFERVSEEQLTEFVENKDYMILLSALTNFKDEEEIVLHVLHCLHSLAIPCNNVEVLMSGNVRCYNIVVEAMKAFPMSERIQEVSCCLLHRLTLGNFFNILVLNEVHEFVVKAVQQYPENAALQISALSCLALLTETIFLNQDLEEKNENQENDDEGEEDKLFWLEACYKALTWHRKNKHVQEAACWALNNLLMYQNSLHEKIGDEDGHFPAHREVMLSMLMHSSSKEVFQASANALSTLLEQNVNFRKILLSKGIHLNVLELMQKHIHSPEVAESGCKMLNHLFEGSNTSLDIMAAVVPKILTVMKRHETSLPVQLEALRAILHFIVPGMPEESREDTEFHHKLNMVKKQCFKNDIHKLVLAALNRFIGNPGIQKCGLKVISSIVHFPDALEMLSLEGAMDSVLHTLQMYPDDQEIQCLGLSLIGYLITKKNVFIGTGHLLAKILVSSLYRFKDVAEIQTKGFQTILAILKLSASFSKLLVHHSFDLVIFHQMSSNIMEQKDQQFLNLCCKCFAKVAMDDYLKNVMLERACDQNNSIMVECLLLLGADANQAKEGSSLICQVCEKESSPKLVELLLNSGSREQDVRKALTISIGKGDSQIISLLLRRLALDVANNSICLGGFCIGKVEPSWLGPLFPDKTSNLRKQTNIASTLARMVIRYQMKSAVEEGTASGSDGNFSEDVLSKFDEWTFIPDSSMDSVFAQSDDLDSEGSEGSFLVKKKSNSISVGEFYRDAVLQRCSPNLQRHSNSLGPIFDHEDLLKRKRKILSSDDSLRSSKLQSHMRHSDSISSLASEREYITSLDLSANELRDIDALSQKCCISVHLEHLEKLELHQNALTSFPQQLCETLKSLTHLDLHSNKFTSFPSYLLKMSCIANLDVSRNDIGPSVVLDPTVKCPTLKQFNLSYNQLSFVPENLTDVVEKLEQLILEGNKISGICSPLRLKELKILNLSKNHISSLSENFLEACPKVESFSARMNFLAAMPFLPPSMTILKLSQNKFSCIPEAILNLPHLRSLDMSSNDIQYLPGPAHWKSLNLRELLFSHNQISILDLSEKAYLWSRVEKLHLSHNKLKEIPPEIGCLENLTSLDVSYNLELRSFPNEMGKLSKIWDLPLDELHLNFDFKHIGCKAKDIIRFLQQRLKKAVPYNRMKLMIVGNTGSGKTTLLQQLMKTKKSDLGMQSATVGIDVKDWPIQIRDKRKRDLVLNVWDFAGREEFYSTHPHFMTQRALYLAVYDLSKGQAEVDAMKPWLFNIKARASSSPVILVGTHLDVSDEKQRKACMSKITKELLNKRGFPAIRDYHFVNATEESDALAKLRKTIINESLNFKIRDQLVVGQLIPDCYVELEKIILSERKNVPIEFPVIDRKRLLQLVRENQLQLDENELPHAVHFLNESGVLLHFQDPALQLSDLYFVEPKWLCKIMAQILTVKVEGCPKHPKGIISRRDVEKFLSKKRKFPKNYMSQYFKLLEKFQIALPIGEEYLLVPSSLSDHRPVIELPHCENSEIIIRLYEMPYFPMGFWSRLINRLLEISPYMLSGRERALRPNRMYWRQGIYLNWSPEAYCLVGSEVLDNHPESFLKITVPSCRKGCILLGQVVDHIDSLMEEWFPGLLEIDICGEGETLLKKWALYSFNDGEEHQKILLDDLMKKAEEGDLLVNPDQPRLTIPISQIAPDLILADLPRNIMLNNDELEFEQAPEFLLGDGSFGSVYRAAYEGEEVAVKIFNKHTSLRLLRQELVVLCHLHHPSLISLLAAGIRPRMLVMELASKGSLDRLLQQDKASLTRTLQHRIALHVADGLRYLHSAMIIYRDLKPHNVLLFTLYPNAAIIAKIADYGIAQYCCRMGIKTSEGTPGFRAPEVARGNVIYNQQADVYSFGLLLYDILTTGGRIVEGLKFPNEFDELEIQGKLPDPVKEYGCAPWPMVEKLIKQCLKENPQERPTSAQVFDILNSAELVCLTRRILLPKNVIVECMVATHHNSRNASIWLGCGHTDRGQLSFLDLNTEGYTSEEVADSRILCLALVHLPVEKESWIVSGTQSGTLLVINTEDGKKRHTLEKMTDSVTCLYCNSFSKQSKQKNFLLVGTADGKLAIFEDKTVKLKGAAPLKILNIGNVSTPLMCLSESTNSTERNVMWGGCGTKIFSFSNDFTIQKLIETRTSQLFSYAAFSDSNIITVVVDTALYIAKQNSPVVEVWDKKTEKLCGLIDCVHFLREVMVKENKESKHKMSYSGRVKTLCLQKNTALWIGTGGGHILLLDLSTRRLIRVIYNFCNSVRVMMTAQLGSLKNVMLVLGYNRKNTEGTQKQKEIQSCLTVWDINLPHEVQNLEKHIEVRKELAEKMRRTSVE
Summary of the method: (§2)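 Competition binding against immobilized biotinylated ligand for DNA-tagged wild-type or G2019S LRRK2, produced from T7 phage-infected E. coli (MOI 0.4, 32° C.) lysate then HEK293 cells. Beads blocked and washed in SeaBlock buffer (1% BSA, 0.05% Tween 20, 1 mM DTT); compounds prepared as 40× stocks in 100% DMSO.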

[10] = target: LRRK2 mutant (G2019S) (Homo sapiens (Human), UniProt Q5S007, G2019S); assay: Evaluation of inhibitory activity against LRRK2 (affinity bead competition binding), G2019S mutant; details: read-out: Residual active values (%) LRRK2(G2019S); for remaining binding at 0.1 µM: 100 nM; for remaining binding at 0.5 µM: 500 nM
Chain of LRRK2 mutant (G2019S) (Q5S007 whole entry G2019S, looked up): as the sequence (Q5S007 whole entry, looked up) above, with G2019S counted along it
Summary of the method: as §2

[11] = test system: gastric cancer cell line AGS; assay: Cancer cell proliferation inhibitory activity evaluation 2 (CCK-8), AGS; format: cell-based; details: Homo sapiens, read-out: Cancer cell proliferation inhibitory activity AGS
[12] = test system: human breast cancer cell line MDA-MB-231; assay: Cancer cell proliferation inhibitory activity evaluation 1 (CCK-8), MDA-MB-231; format: cell-based; details: MDA-MB-231, 72 h, read-out: Cancer cell proliferation inhibitory activity MDAMB231
Procedure: as §1

[13] = test system: colorectal cancer cell line HT-29; assay: Cancer cell proliferation inhibitory activity evaluation 1 (CCK-8), HT-29; format: cell-based; details: Homo sapiens, HT-29, 72 h, read-out: Cancer cell proliferation inhibitory activity HT29
Procedure: as §1

[14] = target: MLK1 (Homo sapiens (Human), UniProt P80192); assay: Evaluation of inhibitory activity of enzyme units, MLK1 ([γ-33P]-ATP filter assay); format: biochemical
Chain of MLK1 (P80192 whole entry, looked up): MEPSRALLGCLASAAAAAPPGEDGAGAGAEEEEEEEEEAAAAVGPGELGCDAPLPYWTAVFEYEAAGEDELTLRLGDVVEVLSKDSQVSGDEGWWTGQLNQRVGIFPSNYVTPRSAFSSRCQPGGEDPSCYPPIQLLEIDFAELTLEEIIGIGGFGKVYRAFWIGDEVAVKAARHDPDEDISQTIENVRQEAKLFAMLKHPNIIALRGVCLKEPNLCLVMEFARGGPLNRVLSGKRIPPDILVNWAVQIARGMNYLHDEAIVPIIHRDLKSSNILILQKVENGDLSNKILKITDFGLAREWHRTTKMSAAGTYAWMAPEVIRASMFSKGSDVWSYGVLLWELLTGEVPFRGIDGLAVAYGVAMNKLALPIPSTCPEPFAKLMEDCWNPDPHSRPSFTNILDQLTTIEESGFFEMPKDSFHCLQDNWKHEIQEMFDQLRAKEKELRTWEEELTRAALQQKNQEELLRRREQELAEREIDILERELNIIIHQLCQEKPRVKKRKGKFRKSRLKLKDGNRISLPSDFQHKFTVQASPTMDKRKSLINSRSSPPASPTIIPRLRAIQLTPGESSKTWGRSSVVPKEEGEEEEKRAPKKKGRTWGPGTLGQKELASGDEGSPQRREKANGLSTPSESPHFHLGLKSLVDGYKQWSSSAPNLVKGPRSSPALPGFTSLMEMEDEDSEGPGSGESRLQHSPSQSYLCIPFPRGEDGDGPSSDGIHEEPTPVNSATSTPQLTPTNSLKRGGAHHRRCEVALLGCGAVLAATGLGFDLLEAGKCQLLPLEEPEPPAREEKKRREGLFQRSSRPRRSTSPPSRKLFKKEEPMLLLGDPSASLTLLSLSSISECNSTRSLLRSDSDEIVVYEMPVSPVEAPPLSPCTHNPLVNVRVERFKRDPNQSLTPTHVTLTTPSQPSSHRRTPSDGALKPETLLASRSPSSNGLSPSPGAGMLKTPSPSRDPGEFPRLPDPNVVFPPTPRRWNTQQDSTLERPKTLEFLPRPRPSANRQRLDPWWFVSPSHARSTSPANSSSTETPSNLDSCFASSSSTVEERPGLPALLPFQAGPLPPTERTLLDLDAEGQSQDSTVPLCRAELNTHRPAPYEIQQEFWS

[15] = target: MLK2 (Homo sapiens (Human), UniProt Q02779); assay: Evaluation of inhibitory activity of enzyme units, MLK2 ([γ-33P]-ATP filter assay); format: biochemical
[16] = test system: human lung cancer cell line A549; assay: Cancer cell proliferation inhibitory activity evaluation 2 (CCK-8), A549; format: cell-based
[17] = test system: gastric cancer cell line Hs746T; assay: Cancer cell proliferation inhibitory activity evaluation 2 (CCK-8), Hs746T; format: cell-based; details: Homo sapiens
[18] = 72 h, read-out: Cancer cell proliferation inhibitory activity Jurkat
[19] = 10 μM, 72 hours, CCK-8, read-out: Cancer cell proliferation inhibitory activity Jurkat
[20] = U-937, 10 μM, 72 hours, CCK-8 (Table 3)
[21] = A549, 72 h, read-out: Cancer cell proliferation inhibitory activity A549
[22] = 72 h, read-out: Cancer cell proliferation inhibitory activity Hs746T
[23] = A549, 10 μM, 72 hours, CCK-8, read-out: Cancer cell proliferation inhibitory activity A549
[24] = 10 μM, 72 hours, CCK-8, read-out: Cancer cell proliferation inhibitory activity Hs746T

Row | Structure (SMILES) | inhibition at 10 µM [1, 18] [%] | IC50 [2] [nM] | inhibition at 10 µM ([3]; U-937, 72 h) [%] | Relative degree of expression inhibition (%) α-SMA [4] [%] | Relative degree of expression inhibition (%) Fibronectin-1 [6] | Relative degree of expression inhibition (%) TGF-β1 [7] [%] | remaining binding at 0.1 µM [9] [%] | remaining binding at 0.5 µM [9] [%] | remaining binding at 0.1 µM [10] [%] | remaining binding at 0.5 µM [10] [%] | inhibition at 10 µM ([11]; 72 h) [%] | inhibition at 10 µM [1, 19] [%] | inhibition at 10 µM [3, 20] [%] | inhibition at 10 µM ([11]; 10 μM, 72 hours, CCK-8) [%] | IC50 [14] [nM] | inhibition at 10 µM [16, 23] [%] | inhibition at 10 µM [17, 24] [%] | also measured
1 | CCS(=O)(=O)N1CC[C@H](Nc2c(Br)cnc3[nH]c(-c4cc(C)n(-c5cccc(N6CCOCC6)c5)c4C)nc23)C1 [Example 2, (S)-6-bromo-2-(2,5-dimethyl-1-(3-morpholinophenyl)-1H-pyrrol-3-yl)-N-(1-(ethylsulfonyl)pyrrolidine-3-yl)-3H-imidazo[4,5-b]pyridine-7-amine] | 10 to 50 | 4 | 10 to 50 | 48.35 | 77.72% | 97.39 | 17 | 3.5 | 4 | 0.8 | > 50 |  |  |  |  |  |  | inhibition at 10 µM [5]: > 50%; inhibition at 10 µM [8]: > 50%; inhibition at 10 µM [12]: > 50%; inhibition at 10 µM [13]: > 50%
2 | Cc1cc(-c2nc3c(Nc4ccc5c(c4)OCO5)c(Br)cnc3[nH]2)c(C)n1-c1cccc(S(N)(=O)=O)c1 [Example 44, 3-(3-(7-(benzo[d][1,3]dioxole-5-yl-amino)-6-bromo-3H-imidazo[4,5-b]pyridine-2-yl)-2,5-dimethyl-1H-pyrrol-1-yl)benzenesulfonamide] |  | 27 |  | 73.45 | 75.60% | 57.05 |  |  |  |  |  | 10 to 50 | 10 to 50 | 10 to 50 | 109 |  |  | IC50 [15]: 211 nM
3 | COCCOc1ccc(Nc2c(Br)cnc3[nH]c(-c4cc(C)n(-c5ccc6c(c5)OCO6)c4C)nc23)cc1 [Example 45, 2-(1-(benzo[d][1,3]dioxole-5-yl)-2,5-dimethyl-1H-pyrrol-3-yl)-6-bromo-N-(4-(2-methoxyethoxy)phenyl)-3H-imidazo[4,5-b]pyridine-7-amine] |  | 32 |  | 74.97 | 60.64% | 33.15 |  |  |  |  |  | < 10 | 10 to 50 | 10 to 50 | 85 |  |  | IC50 [15]: 524 nM
4 | CCS(=O)(=O)N1CC[C@H](Nc2c(Br)cnc3nc(-c4cc(C)n(-c5cccc(C(=O)N6CCN(C)CC6)c5C)c4C)[nH]c23)C1 [Example 81, (3-(3-(6-bromo-7-(((S)-1-(ethylsulfonyl)pyrrolidine-3-yl)amino)-1H-imidazo[4,5-b]pyridine-2-yl)-2,5-dimethyl-1H-pyrrol-1-yl)-2-methylphenyl) (4-methylpiperazine-1-yl) methanone] | > 50 | 9 | > 50 | 61.69 | 61.05% | 44.28 | 0.7 | 0.6 | 0 | 0.1 | > 50 |  |  |  | 14 |  |  | inhibition at 10 µM [16, 21]: 10 to 50%; inhibition at 10 µM [17, 22]: 10 to 50%
5 | Cc1ccc(NC(=O)CN2CCOCC2)cc1-n1c(C)cc(-c2nc3ncc(Br)c(Nc4cccc(S(N)(=O)=O)c4)c3[nH]2)c1C [Example 88, N-(3-(3-(6-bromo-7-((3-sulfamoylphenyl)amino)-1H-imidazo[4,5-b]pyridine-2-yl)-2,5-dimethyl-1H-pyrrol-1-yl)-4-methylphenyl)-2-morpholinoacetamide] |  | 52 |  | 74.86 | 86.78% | 56.45 | 73 | 46 | 57 | 19 |  | > 50 | 10 to 50 | > 50 | 82 | 10 to 50 | > 50 | 
6 | CCS(=O)(=O)N1CC[C@H](Nc2c(Br)cnc3nc(-c4cc(C)n(-c5cc(C(=O)NCCN(C)C)ccc5C)c4C)[nH]c23)C1 [Example 93, 3-(3-(6-bromo-7-(((S)-1-(ethylsulfonyl)pyrrolidine-3-yl)amino)-1H-imidazo[4,5-b]pyridine-2-yl)-2,5-dimethyl-1H-pyrrol-1-yl)-N-(2-(dimethylamino)ethyl)-4-methylbenzamide] | > 50 | 54 | > 50 | 73.82 | 74.05% | 42.54 | 60 | 51 | 66 | 25 | > 50 |  |  |  | 33 |  |  | inhibition at 10 µM [16, 21]: 10 to 50%; inhibition at 10 µM [17, 22]: > 50%
7 | Cc1ccc(C(=O)N2CCN(C)CC2)cc1-n1c(C)cc(-c2nc3ncc(Br)c(Nc4cccc(S(N)(=O)=O)c4)c3[nH]2)c1C [Example 95, 3-((6-bromo-2-(2,5-dimethyl-1-(2-methyl-5-(4-methylpiperazine-1-carbonyl)phenyl)-1H-pyrrol-3-yl)-1H-imidazo[4,5-b]pyridine-7-yl)amino)benzenesulfonamide] |  | 60 |  | 67.81 | 65.78% | 45.25 | 68 | 43 | 79 | 24 |  | 10 to 50 | < 10 | 10 to 50 | 37 | < 10 | 10 to 50 | 
8 | Cc1ccc(C(=O)NCCN(C)C)cc1-n1c(C)cc(-c2nc3ncc(Br)c(Nc4cccc(S(N)(=O)=O)c4)c3[nH]2)c1C [Example 96, 3-(3-(6-bromo-7-((3-sulfamoylphenyl)amino)-1H-imidazo[4,5-b]pyridine-2-yl)-2,5-dimethyl-1H-pyrrol-1-yl)-N-(2-(dimethylamino)ethyl)-4-methylbenzamide] |  | 137 |  | 37.83 | 61.67. % | 92.86 | 0.4 | 0 | 0.8 | 0.6 |  | < 10 | < 10 | < 10 | 145 | < 10 | 10 to 50 | 
